Test system: rd10 mice
Assay: Rod photoreceptor preservation in rd10 mice (photoreceptor rows in ONL, immunofluorescence)
Type: in vivo, mouse
Procedure: All inhibitors were diluted in 0.9% bacteriostatic sodium chloride (saline).
Retinas were fixed in 4% paraformaldehyde overnight at 4° C., washed in PBS, incubated in 5% sucrose/PBS for 30 min and then cryopreserved in 20% sucrose/PBS overnight at 4° C. Retinas were embedded in 2:1 mix of 20% sucrose and OCT (Sakura Finetek Torrance, CA) and stored at −80° C. Blocks with tissue samples were sectioned to 7-10 μm on a Cryostat Microtome HM550 (Thermo Fisher Scientific) and stored at −20° C. Antigen retrieval was performed by incubating the slides in 10 mM sodium citrate pH 6 for 30 min at 80° C. Double labeling immunohistochemistry was performed using fluorescent Alexa Fluor-conjugated secondary antibodies diluted 1:800 (Invitrogen, Carlsbad, California). Primary antibodies were diluted as follow: anti-H3K4me2 1:600, anti-H3K9me2 1:600, anti-RHO 1:50, anti-OPN1SW 1:400, anti-GFAP 1:1000, anti-IBA1 1:450 (AifI gene). […] The acquisition parameters were maintained constant for each set of experiments. Fluorescence intensity was assessed using ImageJ software (Bethesda, MD).

O=C(O)c1ccc(CN2CCC(CN[C@@H]3C[C@H]3c3ccccc3)CC2)cc1 [GSK, GSK2879552]
rows of photoreceptors remaining in the ONL (GSK 1.5 mg/kg i.p. daily, data not shown): 5-6 rows | RHO protein staining (GSK 4.2 mg/kg PN9 till PN24, vs saline): increased | photoreceptor survival with dosing each second day (GSK 4.2 mg/kg each second day (ESD), PN9 till PN24): survived to essentially the same extent as with treatment each day | rows of photoreceptors preserved in the ONL at PN24 (GSK 4.2 mg/kg i.p. daily PN9 till PN24): more than 10 rows | rod degeneration at end of short treatment (GSK from PN9 to PN17, examined at PN17): minimal degeneration | rod degeneration one week after ending treatment (GSK from PN9 to PN17, examined at PN24): substantial loss of photoreceptors | rod degeneration 21 days after ending treatment (GSK from PN9 to PN24, examined at PN45): substantial loss of cells | rod degeneration, late start of treatment (GSK from PN15 to PN24, assayed at PN24): blocked further degeneration
